From patent US6949558B2, “Enhancement of taxane-based chemotherapy by a CDK1 antagonist” (Yale University, priority 2001, dated 2005)
Where “and” joins values, the source holds several entries; their conditions need not be identical. Equal values may be shown once.

What was measured:
HeLa cells [1] = experiment: Apoptosis by DNA content analysis and flow cytometry in HeLa cells; format: cell-based, human
Method: Cervical carcinoma HeLa (functionally inactivated p53) cells or breast carcinoma MCF-7 (wild type p53) cells were plated at 50-60% confluency in C-6 wells. Cells were treated with taxol at 0.2 μM for 0 to 32 hours in complete media.
(§1) After 4, 8, 16, and 32 hours of incubation, without removing taxol from the wells, purvalanol A was added at three increasing concentrations, 1, 10 and 20 uM (FIG. 1). A control was performed with addition of purvalanol A at the 0-h time point.
(§2) The cell populations were harvested at increasing time intervals from the 0-h time point or corresponding to the addition of purvalanol A. Apoptosis was analyzed by DNA content analysis and flow cytometry (DAPI staining).

MCF-7 cells = experiment: Apoptosis by DNA content analysis and flow cytometry in MCF-7 cells; format: cell-based, human
Method: Cervical carcinoma HeLa (functionally inactivated p53) cells or breast carcinoma MCF-7 (wild type p53) cells were plated at 50-60% confluency in C-6 wells. […]
as §1, §2

[2] = system: p34^cdc2 kinase activity (MPM-2 epitope) in HeLa cells; experiment: MPM-2 mitotic phosphoepitope expression (p34^cdc2 kinase activity) in HeLa cells; format: cell-based, human
[3] = system: survivin expression in HeLa cells; experiment: Survivin expression by Western blotting in HeLa cells; format: cell-based, human
Method: (§3) Cell Cultures, Proteins and Antibodies: Breast carcinoma MCF-7 and cervical carcinoma HeLa cells (American Type Culture Collection, Manassas, Va.) were maintained in culture according to the manufacturer's specifications. For treatment with genotoxic agents, HeLa or MCF-7 cells were incubated with vehicle (DMSO) or taxol (2 μM, Sigma Chemical Co., St. Louis, Mo.), adriamycin (100 nM, Sigma), cis-platin (3 μM, Sigma) or subjected to ultraviolet B (UVB) irradiation at 50 or 300 J/m^2. In some experiments, HeLa or MCF-7 treated with taxol, adriamycin or UVB as described above were incubated with inhibitors of transcription (actinomycin D, 1 μg/ml) or translation (cycloheximide, 2 mg/ml) before determination of protein expression by Western blotting. […] A replication-deficient adenovirus encoding wild type survivin (pAd-Survivin) or control encoding Green Fluorescence Protein (pAd-GFP) was generated using the pAd-Easy system as described previously (M. Mesri et al. (2001) J. Clin. Invest. 108: 981-90), and propagated in HEK293 cells with purification by CsCl banding. […] Antibodies to p34^cdc2 or bcl-2 were obtained from Pharmingen (San Diego, Calif.) and R&D, respectively. An antibody to β-actin was from Sigma and antibodies to MPM-2 mitotic phosphoproteins was from Upstate Biotechnology (Lake Placid, N.Y.).
(§4) In some experiments, total RNA was extracted from MCF-7 cells at various time intervals after adriamycin treatment, and hybridized with 32 P-labeled survivin cDNA as described previously. Radioactive bands were detected by autoradiography. […] In other experiments, samples were transferred to nylon membranes and analyzed by Western blotting with antibodies to p34^cdc2 (1 μg/ml), survivin (2 μg/ml), or survivinT34* (5 μg/ml).
In other experiments, HeLa cells were treated with taxol (0.2 μM) for 16 h followed by the DNA damaging agent adriamycin (100 nM, Sigma) or the nucleoside analog 5-Fluorouracil (500 μM, Sigma) for 8-32 h at 37° C. […] In some experiments, HeLa cells were transfected by lipofectamine with a minimal survivin promoter construct upstream of a luciferase reporter gene (pLuc-cyc1.2), as described (F. Li et al. (1998) Nature 396: 580-584). Cells were treated with taxol (2 μM) or UVB (50 J/m2), and analyzed for changes in luciferase activity at increasing time intervals (12-36 h) in a luminometer. Luciferase values were normalized to β-galactosidase expression. […] The immune complexes were separated by SDS gel electrophoresis and analyzed with antibodies to survivin or a-survivinT34* by Western blotting.

[4] = system: survivin expression in PC3 cells; experiment: Survivin expression by Western blotting in PC3 cells; format: cell-based; conditions: taxol then Purvalanol A
[5] = system: survivin phosphorylation on Thr^34 in HeLa cells; experiment: Survivin phosphorylation on Thr^34 in HeLa cells (immunoprecipitation, Western blotting); format: cell-based, human; conditions: taxol 0.2 μM 16 h then Purvalanol A 20 μM 16 h
Method: A. In vitro kinase assay. […] Radioactive bands were detected by autoradiography. […] The immune complexesb were analyzed by Western blotting (WB) with an antibody to Thr^34-phosphorylated survivin (a-survivinT34*, top panel) or with an antibody to survivin (a-survivin, lower panel) followed by chemiluminescence. For all panels, relative molecular weight markers in kDa are shown on the left.
as §4
Luciferase values were normalized to β-galactosidase expression.

MCF-7 tumors = experiment: Breast cancer xenograft model (Example 8); format: in vivo, CB17 SCID/beige mice; conditions: taxol alone 2.5 or 5 mg/kg, Purvalanol A alone 20 mg/kg, i.p.
Method: Breast Cancer Xenograft Model: All experiments involving animals were approved by the institutional animal cure and use committee. Six- to eight-week old female CB17 SCID/beige mice (Taconic Farms, Germantown, N.Y.) were injected s.c. into the flanks with 2.5×10^6 exponentially growing MCF-7 cells in 250 μl of sterile PBS, pH 7.4. […] Animals were injected i.p. with taxol alone (2.5 or 5 mg/kg), Purvalanol A alone (20 mg/kg) or the sequential combination of taxol-Purvalanol A for two consecutive days each divided by a day with no treatment. For single agent treatment, vehicle was given in place of taxol or Purvalanol A with the same schedule. Each complete cycle was separated by 2 d without treatment. Tumor volume was measured in the three dimensions with a caliper. Animals with tumor burden >3000 mm^3 were sacrificed (Survival).
Statistical Analysis: All in vitro experiments were repeated at least three times. […] The survival curves were compared using the log-rank test. This test generates a P value testing the null hypothesis that the survival curves are identical in the overall populations.

HeLa cells [6] = experiment: Apoptosis by DNA content analysis and flow cytometry in HeLa cells; format: cell-based, human; remark: listed apart in the source
caspase-9 = experiment: Caspase-9 processing by Western blotting in HeLa cells; conditions: taxol 0.2 μM, Purvalanol A 20 μM or sequential combination, 16 h
[7] = system: p34^cdc2 kinase activity (MPM-2 epitope) in MCF-7 cells; experiment: MPM-2 mitotic phosphoepitope expression (p34^cdc2 kinase activity) in MCF-7 cells; format: cell-based, human; conditions: adriamycin-induced G2/M arrest
Method: MPM-2 Mitotic Phosphoepitope Expression: For detection of mitotic phosphoproteins (D. D. Vandre et al. (1989) J. Cell Sci. 94: 245-58), MCF-7 cells (1-2×10^5 cells/60 mm dish) were treated with taxol (2 μM), adriamycin (100 nM), 50 or 300 J/m^2 UVB irradiation and cultured for 0, 8, 16, 24 or 36 h at 37° C. Cells were fixed in 70% ethanol, labeled with MPM-2 antibody (6 μg/ml) followed by addition of goat anti-mouse FITC (Boehringer Mannheim) for 1 h at 22° C. in the presence of 5 μg/ml propidium iodide (PI) containing 50 μg/ml RNase A. Samples were analyzed on a FACScan (Becton Dickinson, Mountain View, Calif.), using CellQuest software.
MPM-2 Mitotic Phosphoepitope Expression: For detection of mitotic phosphoproteins (D. D. Vandre et al. (1989) J. Cell Sci. 94: 245-258), MCF-7 cells (1-2×10^5 cells/60 mm dish) were treated with taxol (0.2 μM), or vincristine (100 nM) for increasing time intervals (8-36 h) at 37° C. Cells were fixed in 70% ethanol, labeled with MPM-2 antibody (6 μg/ml; Upstate Biotechnology, Lake Placid, N.Y.) followed by addition of goat anti-mouse FITC (Boehringer Mannheim) for 1 h at 22° C. in the presence of 5 μg/ml propidium iodide containing 50 μg/ml RNAse A. Samples were analyzed on a FACScan (Becton Dickinson, Mountain View, Calif.), using CellQuest software. Data are expressed as %MPM-2 positive cells in the entire population.

[8] = system: survivin expression in MCF-7 cells; experiment: Survivin expression by Western blotting in MCF-7 cells; format: cell-based, human; conditions: 100 nM adriamycin
Method: as §3, §4

[9] = system: survivin mRNA in MCF-7 cells; experiment: Northern hybridization of survivin mRNA in MCF-7 cells; format: cell-based, human; conditions: adriamycin-treated MCF-7 cells
Method: as §4

MCF-7 xenografts = format: in vivo; conditions: adriamycin 2 mg/kg or flavopiridol 15 mg/kg alone, i.p.
Excerpt: Each complete cycle was separated by 2 d without treatment.
This test generates a P value testing the null hypothesis that the survival curves are identical in the overall populations.

[10] = taxol 2 μM, adriamycin 100 nM, cis-platin 3 μM (Example 7)

Structure (SMILES): CC(C)[C@H](CO)Nc1nc(Nc2cccc(Cl)c2)c2ncn(C(C)C)c2n1 [Purvalanol A]
- cell population with hypodiploid (apoptotic) DNA content / cell death (HeLa cells [1]; HeLa, 16 h, taxol 0.2 μM, Purvalanol A 20 μM, alone or sequential): 6%
- cell cycle arrest (HeLa cells [1]; HeLa, taxol 0.2 μM or purvalanol A 1-20 uM alone (Examples 1, 2)): strong M arrest
- apoptosis (HeLa cells [1]; HeLa, taxol 0.2 μM then 20 uM purvalanol A, 8 h after purvalanol A addition): 40%
- effect of purvalanol A on taxol-treated cells, concentration dependence (HeLa cells [1]; purvalanol A 1, 10 and 20 uM added after taxol 0.2 μM): dose dependent
- efficacy of taxol followed by purvalanol A compared with HeLa cells (MCF-7 cells; taxol 0.2 μM then purvalanol A): nearly identical
- synergy with vincristine treatment (MCF-7 cells; vincristine 10 nM and 100 nM then purvalanol A 10 uM): did not synergize with vincristine treatment
- inhibition of kinase activity (MPM-2 epitope) ([2]; 16 h after addition of purvalanol A in taxol-treated cells, cell line not stated): 70-80%
- MPM-2 mitotic phosphoepitope expression ([2]; HeLa, taxol 0.2 μM 16 h then Cdk inhibitor for 16 h (Purvalanol A 10 μM, alsterpaullone 20 μM, flavopiridol 250 nM, olomoucine 400 μM)): completely suppressed MPM-2 mitotic phosphoepitope expression
- MPM-2 mitotic phosphoepitope expression ([2]; HeLa, taxol 0.2 μM 16 h then Cdk inhibitor for 32 h): completely suppressed MPM-2 mitotic phosphoepitope expression
- p34^cdc2 kinase activity ([2]; HeLa, vincristine 100 nM then Purvalanol A 20 μM, earliest time point tested of 8 h): suppressed p34^cdc2 kinase activity
- survivin levels ([3]; Purvalanol A alone or Purvalanol A followed by taxol): did not affect survivin levels
- survivin expression ([3]; taxol 0.2 μM 16 h then Purvalanol A 20 μM 16 h): inhibition of increased survivin expression after taxol treatment
- survivin expression ([3]; vincristine then Purvalanol A): reversed the increase in survivin expression
- effect on taxol-induced increase of survivin expression [4]: reversed
- phosphorylation of endogenous survivin on Thr^34 [5]: suppressed phosphorylation of endogenous survivin on Thr^34
- kinetics of tumor growth (MCF-7 tumors): did not affect the kinetics of tumor growth
- vincristine-induced apoptosis in the presence or the absence of Purvalanol A (HeLa cells [6]; after 96 h): indistinguishable
- apoptosis, purvalanol A alone or reversed schedule (HeLa cells [6]; purvalanol A 1, 10, 20 uM alone or followed by 0.2 uM taxol): no apoptosis at all
- apoptosis (HeLa cells [6]; taxol 0.2 μM then 20 uM purvalanol A, 16 h after purvalanol A addition): ~90%
- effect of sequential addition to taxol-treated cells (HeLa cells [6]; taxol 0.2 μM then Purvalanol A): escape from the mitotic block, and massive apoptosis
- apoptosis (HeLa cells [6]; vincristine then Purvalanol A, throughout a 32-h culture): did not result in induction of apoptosis
- caspase-9 processing (caspase-9): did not result in significant caspase-9 cleavage

Structure (SMILES): COc1cccc2c1C(=O)c1c(O)c3c(c(O)c1C2=O)C[C@@](O)(C(=O)CO)C[C@@H]3O[C@H]1C[C@H](N)[C@H](O)[C@H](C)O1 [adriamycin, doxorubicin]
- apoptosis (MCF-7 cells; adriamycin 100 nM alone, three values given, their conditions not stated): 2% and 3% and 10%
- apoptosis (MCF-7 cells; [10]): negligible apoptosis
- cell cycle arrest (MCF-7 cells; [10]): G2/M arrest
- enhancement of taxol-induced cell death (MCF-7 cells; taxol then adriamycin 100 nM and 200 nM in place of purvalanol A): did not enhance taxol-induced cell death
- residual cell population exhibiting MPM-2 expression [7]: 20-25%
- survivin expression [8]: increased survivin expression
- survivin mRNA [9]: no detectable increase in survivin mRNA
- kinetics of tumor growth vs vehicle (MCF-7 xenografts): did not affect the kinetics of tumor growth
- enhancement of apoptosis vs single agent treatment (HeLa cells [6]; taxol 0.2 μM 16 h then adriamycin 100 nM or 5-Fluorouracil 500 μM): did not result in enhanced apoptosis
